Experiments:
[1] = test system: osteoblastic MC3T3-E1 cells; assay: in vitro; conditions: read-out: LC50; MC3T3-E1 cells cultured five days with monomer; n=3
Experimental: (§1) The effects of each of vinyl ester 4V, acrylate 4A, and meth-acrylate 4M on osteoblastic MC3T3-E1 cells in vitro was tested by the MTT assay method. The osteoblastic MC3T3-E1 cells were cultured for five days in the presence of each of vinyl ester (4V), acrylate (4A), and meth-acrylate (4M).
(§2) Cytotoxicity of the newly synthesized monomers and the reference substances together with the thiols and photoinitiator used was examined in osteoblast cell culture by using an Alamar Blue Assay. This assay incorporates a fluorometric/colormetric growth indicator based on the detection of metabolic activity. 1M solutions of the monomers, thiols, and photoinitiator in DMSO (HYBRI-MAX®, Sigma) were prepared. […] For experiments, cells [osteoblasts taken of the strain C57BL/6 of mus musculus (ATCC Catalog No. CRL-2593, MC3T3-E1, Subclone 4)] were cultured in 100 μl DMEM Medium supplemented with 10% FCS, 100 U/ml Penicillin, and 100 μg/ml Streptomycin, in 96-well plates at a density of 6.4×10^3 cells well^−1 for 24 hours in humidified air (95% relative humidity) with 5% CO2 at 37° C. The next day, the cells were treated with 100 μL of the different concentrations of the monomers for 5 days in triplicates. 10 μL of resazurin were added and the cells incubated for 4 hours at 37° C. The fluorescence intensity was measured for excitation at 530 nm and emission at 580 nm and compared to untreated cells (cells+medium). As control groups cells treated with 1% DMSO-solution, a blank value, and PBS-puffer were used.

[2] = Photoreactivity by photo-DSC: time to reach the maximum of the polymerization heat; format: physicochemical
Experimental: The compositions which are embodiments of the present invention were compared to acrylate and methacrylate based polymer systems as comparative examples.
The reactivity towards photopolymerization was tested with the help of photo-DSC (differential scanning calorimetry). The measurements were carried out using 2 wt % of 2-hydroxy-1-[4-(2-hydroxyethoxy)phenyl]-2-methyl-1-propanone (Irgacure 2959, Ciba SC) as photoinitiator.

fibroblast cell culture = assay: Monomer cytotoxicity, Alamar Blue Assay in fibroblast cell culture; conditions: monomer concentration at which resorufin production was reduced to 50% of control, n=3
Excerpt: This assay incorporated a fluorometric/colormetric growth indicator based on detection of metabolic activity.

in vitro = assay: in vitro
Experimental: as §1, §2

[3] = Butanediol monomer series, 0% TMP700
[4] = Butanediol monomer series, 0% TT
[5] = Butanediol monomer series, 10% TMP700
[6] = Butanediol monomer series, 10% TT
[7] = Butanediol monomer series, 20% TMP700
[8] = Butanediol monomer series, 20% TT
[9] = Butanediol monomer series, 40% TMP700
[10] = Butanediol monomer series, 40% TT
[11] = PEG600 monomer series, 0% TMP700
[12] = PEG600 monomer series, 10% TMP700
[13] = PEG600 monomer series, 20% TMP700
[14] = PEG600 monomer series, 40% TMP700
[15] = PEG200 monomer series, 0% TMP700
[16] = PEG200 monomer series, 10% TMP700
[17] = PEG200 monomer series, 20% TMP700
[18] = PEG200 monomer series, 40% TMP700

Molecule | time to reach the maximum of the polymerization heat [2, 3] [s] | time to reach the maximum of the polymerization heat [2, 4] [s] | time to reach the maximum of the polymerization heat [2, 5] [s] | time to reach the maximum of the polymerization heat [2, 6] [s] | time to reach the maximum of the polymerization heat [2, 7] [s] | time to reach the maximum of the polymerization heat [2, 8] [s] | time to reach the maximum of the polymerization heat [2, 9] [s] | time to reach the maximum of the polymerization heat [2, 10] [s] | IC50 [mM] (TC50 values of various monomers) (fibroblast cell culture) | also measured
C=CC(=O)OCCCCOC(=O)C=C [Butanediol Acrylate, 1,4-Butanediol-di-acrylate] | 2.7 | 2.7 | 2.9 | 2.5 | 3.5 | 2.8 | 3.5 | 2.7 |  | CC50 [1]: < 160 µM
Poly(ethylene glycol) diacrylate, MG 600 [PEG600 Acrylate] |  |  |  |  |  |  |  |  |  | time to reach the maximum of the polymerization heat [2, 11]: 3.2 s; time to reach the maximum of the polymerization heat ([2]; PEG600 monomer series, 0% TT): 3.2 s; time to reach the maximum of the polymerization heat [2, 12]: 3.8 s; time to reach the maximum of the polymerization heat ([2]; PEG600 monomer series, 10% TT): 3.2 s; time to reach the maximum of the polymerization heat [2, 13]: 3.7 s; time to reach the maximum of the polymerization heat ([2]; PEG600 monomer series, 20% TT): 3.0 s; time to reach the maximum of the polymerization heat [2, 14]: 3.2 s; time to reach the maximum of the polymerization heat ([2]; PEG600 monomer series, 40% TT): 3.0 s
C=COC(=O)CCCCC(=O)OC=C [AVE, adipic acid divinyl ester] | 4.9 | 4.9 | 8.4 | 7.7 | 2.9 | 5.8 | 2.1 | 2.1 | 10 | 
C=C(C)C(=O)OCCOCCOCCOCCOC(=O)C(=C)C [TTEGDMA, Tetra(ethylene glycol) dimethacrylate] |  |  |  |  |  |  |  |  | <0.16 | time to reach the maximum of the polymerization heat [2, 15]: 12.6 s; time to reach the maximum of the polymerization heat ([2]; PEG200 monomer series, 0% TT): 12.6 s; time to reach the maximum of the polymerization heat [2, 16]: 56.0 s; time to reach the maximum of the polymerization heat ([2]; PEG200 monomer series, 10% TT): 51.5 s; time to reach the maximum of the polymerization heat [2, 17]: 55.1 s; time to reach the maximum of the polymerization heat ([2]; PEG200 monomer series, 20% TT): 58.3 s; time to reach the maximum of the polymerization heat [2, 18]: 46.9 s; time to reach the maximum of the polymerization heat ([2]; PEG200 monomer series, 40% TT): 54.0 s
Poly(ethylene glycol) dimethacrylate, MG 600 [PEG600 Methacrylate] |  |  |  |  |  |  |  |  |  | time to reach the maximum of the polymerization heat [2, 11]: 10.5 s; time to reach the maximum of the polymerization heat ([2]; PEG600 monomer series, 0% TT): 10.5 s; time to reach the maximum of the polymerization heat [2, 12]: 27.0 s; time to reach the maximum of the polymerization heat ([2]; PEG600 monomer series, 10% TT): 26.3 s; time to reach the maximum of the polymerization heat [2, 13]: 31.2 s; time to reach the maximum of the polymerization heat ([2]; PEG600 monomer series, 20% TT): 31.2 s; time to reach the maximum of the polymerization heat [2, 14]: 30.6 s; time to reach the maximum of the polymerization heat ([2]; PEG600 monomer series, 40% TT): 24.9 s
C=C(C)C(=O)OCCCCOC(=O)C(=C)C [Butanediol Methacrylate, 1,4-Butanediol di-methacrylat] | 28.6 | 28.6 | 90.2 | 87.6 | 85.4 | 83.8 | 75.0 | 55.0 |  | CC50 (in vitro): 1300 µM
C=COC(=O)COCCOCCOCC(=O)OC=C [TUVE, ω,ω′-3,6,9-trioxaundecanedioic acid divinyl ester] |  |  |  |  |  |  |  |  | 2.5 | 
C=CC(=O)OCCOCCOCCOCCOC(=O)C=C [TTEGDAc, Tetra(ethylene glycol) diacrylate] |  |  |  |  |  |  |  |  | <0.16 | time to reach the maximum of the polymerization heat [2, 15]: 2.6 s; time to reach the maximum of the polymerization heat ([2]; PEG200 monomer series, 0% TT): 2.6 s; time to reach the maximum of the polymerization heat [2, 16]: 3.6 s; time to reach the maximum of the polymerization heat ([2]; PEG200 monomer series, 10% TT): 3.5 s; time to reach the maximum of the polymerization heat [2, 17]: 3.6 s; time to reach the maximum of the polymerization heat ([2]; PEG200 monomer series, 20% TT): 3.3 s; time to reach the maximum of the polymerization heat [2, 18]: 3.4 s; time to reach the maximum of the polymerization heat ([2]; PEG200 monomer series, 40% TT): 3.3 s
C=COC(=O)OCCCCOC(=O)OC=C [Butanediol Vinyl carbonate, 1,4-butanediol divinyl carbonate] | 3.3 | 3.3 | 6.1 | 7.1 | 4.4 | 3.0 | 2.1 | 2.4 |  | 
O=C(CCS)OCC(COC(=O)CCS)(COC(=O)CCS)COC(=O)CCS [PTM, pentaerythritol tetra(3-mercaptopropionate)] |  |  |  |  |  |  |  |  | 10 | CC50 at 5 days (in vitro; C57BL/6, mouse, osteoblastic MC3T3-E1 cells (Subclone 4, ATCC CRL-2593)): > 10000 µM

Reference: patent US9814801B2, “Thiol-ene polymerization with vinylesters and vinylcarbonate” (Depuy Synthes Products, Inc., priority 2011, dated 2017)
